From ChEMBL document CHEMBL4414679, “Discovery of 4,6-pyrimidinediamine derivatives as novel dual EGFR/FGFR inhibitors aimed EGFR/FGFR1-positive NSCLC” (Eur J Med Chem, 2020)
The source made the active and inactive calls. No cut-off for these calls is given here.

Key:
[1] = tested on: HCC827; test: Antiproliferative activity against human HCC827 cells assessed as inhibition of cell growth at 10 uM incubated for 48 hrs by MTT assay relative to control; assay type: functional; details: HCC827, 48 h
[2] = tested on: NCI-H226; test: Induction of apoptosis in human NCI-H226 cells assessed as necrotic cells at 1 uM measured after 24 hrs by Annexin-V/propidium iodide staining-based flow cytometric analysis (reference value: 3%); assay type: functional
[3] = Tmax in Sprague-Dawley rat at 30 mg/kg, po measured upto 24 hrs by UPLC-MS/MS; assay type: ADME, organism-based; details: in vivo
[4] = tested on: NCI-H226; test: Induction of apoptosis in human NCI-H226 cells assessed as necrotic cells at 5 uM measured after 24 hrs by Annexin-V/propidium iodide staining-based flow cytometric analysis (reference value: 3%); assay type: functional
[5] = Induction of apoptosis in gefitinib-insensitive human HCC827GR cells assessed as late apoptotic cells at 1 uM measured after 24 hrs by Annexin-V/propidium iodide staining-based flow cytometric analysis (reference value: 1.5%); assay type: functional
[6] = target: T1, Fibroblast growth factor receptor 1 (Homo sapiens, UniProt P11362); test: Inhibition of FGFR1 in gefitinib-insensitive human HCC827GR cells assessed as reduction in FGF-induced Akt phosphorylation upto 10 uM measured after 2 hrs by western blot analysis
T1 sequence (P11362 22-822 limits assumed): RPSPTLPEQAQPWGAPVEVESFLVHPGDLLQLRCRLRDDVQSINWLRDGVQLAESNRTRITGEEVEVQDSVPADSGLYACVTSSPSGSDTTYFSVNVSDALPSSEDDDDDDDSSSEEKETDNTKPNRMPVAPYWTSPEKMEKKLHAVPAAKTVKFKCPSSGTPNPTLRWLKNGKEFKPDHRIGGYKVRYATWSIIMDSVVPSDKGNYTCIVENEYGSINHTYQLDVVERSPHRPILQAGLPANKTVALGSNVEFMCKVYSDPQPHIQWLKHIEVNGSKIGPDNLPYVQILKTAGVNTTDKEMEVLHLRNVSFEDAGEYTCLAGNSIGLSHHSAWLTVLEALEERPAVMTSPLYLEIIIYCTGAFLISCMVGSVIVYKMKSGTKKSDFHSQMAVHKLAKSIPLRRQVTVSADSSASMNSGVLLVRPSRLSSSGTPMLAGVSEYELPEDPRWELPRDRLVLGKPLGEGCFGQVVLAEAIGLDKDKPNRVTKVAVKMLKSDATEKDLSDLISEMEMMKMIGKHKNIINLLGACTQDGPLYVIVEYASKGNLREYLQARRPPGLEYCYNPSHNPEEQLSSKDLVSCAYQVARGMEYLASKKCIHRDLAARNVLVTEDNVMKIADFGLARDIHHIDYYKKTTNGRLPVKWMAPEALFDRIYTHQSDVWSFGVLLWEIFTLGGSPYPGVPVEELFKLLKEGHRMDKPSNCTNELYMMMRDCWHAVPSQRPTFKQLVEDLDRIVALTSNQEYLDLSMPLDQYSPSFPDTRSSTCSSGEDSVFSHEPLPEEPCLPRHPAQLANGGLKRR

[7] = target: T2, Epidermal growth factor receptor (Homo sapiens, UniProt P00533); test: Inhibition of EGFR in gefitinib-insensitive human HCC827GR cells assessed as reduction in EGF-induced Akt phosphorylation upto 10 uM measured after 2 hrs by western blot analysis
T2 sequence (P00533 whole entry): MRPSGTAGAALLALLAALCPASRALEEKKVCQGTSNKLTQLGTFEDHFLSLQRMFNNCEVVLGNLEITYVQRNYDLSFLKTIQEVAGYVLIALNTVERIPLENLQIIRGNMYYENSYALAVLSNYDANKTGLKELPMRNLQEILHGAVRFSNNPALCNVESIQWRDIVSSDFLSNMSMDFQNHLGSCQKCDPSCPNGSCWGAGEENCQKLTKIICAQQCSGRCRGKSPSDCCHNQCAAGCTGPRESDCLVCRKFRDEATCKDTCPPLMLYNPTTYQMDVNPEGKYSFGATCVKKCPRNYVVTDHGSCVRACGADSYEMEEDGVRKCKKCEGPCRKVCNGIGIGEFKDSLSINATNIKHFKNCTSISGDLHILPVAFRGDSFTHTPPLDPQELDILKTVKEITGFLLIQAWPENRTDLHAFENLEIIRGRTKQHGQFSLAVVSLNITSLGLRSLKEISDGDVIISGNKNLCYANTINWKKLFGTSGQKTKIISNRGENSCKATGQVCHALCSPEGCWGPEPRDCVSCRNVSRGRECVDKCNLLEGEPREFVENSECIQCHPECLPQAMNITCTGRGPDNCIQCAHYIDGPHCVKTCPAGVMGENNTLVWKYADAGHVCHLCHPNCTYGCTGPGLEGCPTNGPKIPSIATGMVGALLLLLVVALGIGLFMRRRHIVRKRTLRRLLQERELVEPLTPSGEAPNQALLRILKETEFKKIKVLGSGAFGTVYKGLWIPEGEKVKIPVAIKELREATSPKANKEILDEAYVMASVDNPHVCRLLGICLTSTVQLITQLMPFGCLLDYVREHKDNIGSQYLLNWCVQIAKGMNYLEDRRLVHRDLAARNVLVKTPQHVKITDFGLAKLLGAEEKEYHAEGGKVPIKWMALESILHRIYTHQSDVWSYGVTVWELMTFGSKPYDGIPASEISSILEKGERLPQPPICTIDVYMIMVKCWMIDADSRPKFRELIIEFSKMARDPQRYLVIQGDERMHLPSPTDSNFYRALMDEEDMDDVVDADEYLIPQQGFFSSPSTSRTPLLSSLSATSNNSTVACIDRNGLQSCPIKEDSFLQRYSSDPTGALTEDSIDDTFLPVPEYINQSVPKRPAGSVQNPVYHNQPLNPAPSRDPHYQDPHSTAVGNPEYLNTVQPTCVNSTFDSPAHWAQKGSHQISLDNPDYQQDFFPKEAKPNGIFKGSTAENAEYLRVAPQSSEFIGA

[8] = Half-life in Sprague-Dawley rat at 30 mg/kg, po measured upto 24 hrs by UPLC-MS/MS; assay type: ADME, organism-based; details: in vivo
[9] = tested on: Mus musculus; test: Down regulation of FGFR1 phosphorylation in BALB/c nude mouse xenografted with human HCC827GR cells at 15 mg/kg, ip dosed by western blot analysis; assay type: functional, organism-based
[10] = tested on: NCI-H226; test: Induction of apoptosis in human NCI-H226 cells assessed as necrotic cells at 10 uM measured after 24 hrs by Annexin-V/propidium iodide staining-based flow cytometric analysis (reference value: 3%); assay type: functional
[11] = tested on: NCI-H520; test: Antiproliferative activity against human NCI-H520 cells assessed as inhibition of cell growth at 10 uM incubated for 48 hrs by MTT assay relative to control; assay type: functional; details: NCI-H520, 48 h
[12] = Induction of apoptosis in gefitinib-insensitive human HCC827GR cells assessed as necrotic cells at 5 uM measured after 24 hrs by Annexin-V/propidium iodide staining-based flow cytometric analysis (reference value: 5.8%); assay type: functional
[13] = target: Proto-oncogene tyrosine-protein kinase Src (Homo sapiens) (UniProt P12931); test: Inhibition of full length N-terminal GST-tagged human SRC (1 to 536 AA) expressed in baculovirus at 10 uM using FAM-labelled peptide as substrate pre-incubated for 10 mins followed by substrate addition by mobility shift assay relative to control
Chain of Proto-oncogene tyrosine-protein kinase Src (Homo sapiens) (P12931 2-536 limits assumed): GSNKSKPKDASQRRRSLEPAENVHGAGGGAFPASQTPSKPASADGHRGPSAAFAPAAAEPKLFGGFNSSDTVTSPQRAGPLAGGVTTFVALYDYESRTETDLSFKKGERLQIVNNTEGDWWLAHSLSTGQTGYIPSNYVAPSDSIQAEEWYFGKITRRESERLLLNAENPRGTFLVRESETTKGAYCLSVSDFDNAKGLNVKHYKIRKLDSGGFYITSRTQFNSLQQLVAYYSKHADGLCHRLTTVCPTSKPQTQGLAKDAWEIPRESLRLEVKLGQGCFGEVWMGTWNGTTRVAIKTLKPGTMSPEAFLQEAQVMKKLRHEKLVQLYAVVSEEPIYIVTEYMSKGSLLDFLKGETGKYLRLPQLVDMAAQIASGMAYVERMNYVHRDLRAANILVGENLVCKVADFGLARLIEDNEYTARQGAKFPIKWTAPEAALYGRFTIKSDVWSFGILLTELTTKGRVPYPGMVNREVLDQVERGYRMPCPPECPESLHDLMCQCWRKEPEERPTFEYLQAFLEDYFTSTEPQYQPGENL

[14] = Induction of apoptosis in gefitinib-insensitive human HCC827GR cells assessed as late apoptotic cells at 10 uM measured after 24 hrs by Annexin-V/propidium iodide staining-based flow cytometric analysis (reference value: 1.5%); assay type: functional
[15] = tested on: NCI-H226; test: Induction of apoptosis in human NCI-H226 cells assessed as late apoptotic cells at 1 uM measured after 24 hrs by Annexin-V/propidium iodide staining-based flow cytometric analysis (reference value: 2.8%); assay type: functional
[16] = tested on: Mus musculus; test: Down regulation of EGFR phosphorylation in BALB/c nude mouse xenografted with human HCC827GR cells at 15 mg/kg, ip dosed by western blot analysis; assay type: functional, organism-based
[17] = target: T2, Epidermal growth factor receptor; test: Inhibition of EGFR in human PC9 cells assessed as reduction in EGF-induced AKT phosphorylation upto 10 uM incubated for 1 hr by Western blot analysis; assay type: cell-based
[18] = tested on: Epidermal growth factor receptor (Homo sapiens), P00533 [T790M]; test: Inhibition of GST-tagged human EGFR T790M mutant expressed in baculovirus at 10 uM using FAM-labelled peptide as substrate pre-incubated for 10 mins followed by substrate addition by mobility shift assay relative to control
Chain of Epidermal growth factor receptor (Homo sapiens), P00533 [T790M] (P00533 whole entry T790M): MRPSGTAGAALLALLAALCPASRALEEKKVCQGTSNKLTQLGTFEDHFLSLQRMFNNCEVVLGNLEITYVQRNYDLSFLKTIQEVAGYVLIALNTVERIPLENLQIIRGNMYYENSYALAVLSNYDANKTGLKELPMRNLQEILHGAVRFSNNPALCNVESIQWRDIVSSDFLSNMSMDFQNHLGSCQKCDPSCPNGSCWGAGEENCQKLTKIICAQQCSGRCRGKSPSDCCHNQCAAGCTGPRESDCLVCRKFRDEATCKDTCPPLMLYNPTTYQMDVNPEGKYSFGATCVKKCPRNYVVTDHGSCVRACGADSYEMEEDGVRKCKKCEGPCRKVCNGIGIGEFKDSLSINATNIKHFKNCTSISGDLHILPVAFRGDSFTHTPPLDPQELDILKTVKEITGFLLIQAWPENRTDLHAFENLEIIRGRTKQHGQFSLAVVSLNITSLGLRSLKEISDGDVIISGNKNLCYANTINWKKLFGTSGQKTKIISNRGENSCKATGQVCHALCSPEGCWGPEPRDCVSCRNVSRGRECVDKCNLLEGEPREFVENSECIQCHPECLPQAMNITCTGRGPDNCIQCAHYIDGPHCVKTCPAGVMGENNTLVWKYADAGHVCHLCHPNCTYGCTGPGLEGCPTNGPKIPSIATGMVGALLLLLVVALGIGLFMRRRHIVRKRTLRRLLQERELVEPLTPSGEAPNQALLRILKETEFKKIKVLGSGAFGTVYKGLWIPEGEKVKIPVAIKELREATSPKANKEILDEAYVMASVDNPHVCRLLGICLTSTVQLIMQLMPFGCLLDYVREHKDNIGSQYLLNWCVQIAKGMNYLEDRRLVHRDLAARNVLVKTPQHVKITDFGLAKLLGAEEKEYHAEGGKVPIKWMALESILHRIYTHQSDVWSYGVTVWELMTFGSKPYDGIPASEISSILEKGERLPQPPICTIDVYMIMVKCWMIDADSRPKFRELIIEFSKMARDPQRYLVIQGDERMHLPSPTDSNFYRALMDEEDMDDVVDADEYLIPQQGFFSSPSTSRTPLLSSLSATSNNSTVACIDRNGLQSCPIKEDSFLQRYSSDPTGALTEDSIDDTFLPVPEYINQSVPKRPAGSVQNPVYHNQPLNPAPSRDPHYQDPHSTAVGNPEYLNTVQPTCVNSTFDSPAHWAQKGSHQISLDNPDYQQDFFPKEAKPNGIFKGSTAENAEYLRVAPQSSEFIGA

[19] = tested on: NCI-H226; test: Induction of apoptosis in human NCI-H226 cells assessed as late apoptotic cells at 5 uM measured after 24 hrs by Annexin-V/propidium iodide staining-based flow cytometric analysis (reference value: 2.8%); assay type: functional
[20] = AUC (0 to infinity) in Sprague-Dawley rat at 30 mg/kg, po measured upto 24 hrs by UPLC-MS/MS; assay type: ADME, organism-based; design: dose 30 mg/kg, route oral, time infinity; details: in vivo
[21] = species: Homo sapiens; test: Induction of cell cycle arrest in gefitinib-insensitive human HCC827GR cells assessed as accumulation of cells at G1 measured after 24 hrs by flow cytometry; assay type: functional
[22] = tested on: Homo sapiens; test: Antitumor activity against human HCC827GR cells xenografted in BALB/c nude mouse assessed as reduction in tumor volume at 15 mg/kg, ip dosed measured every 2 days upto 25 days; assay type: functional, organism-based
[23] = target: CDK7/Cyclin H/MNAT1 (Homo sapiens) (UniProt P51946+P50613+P51948); test: Inhibition of full length N-terminal GST-tagged human CDK7 (1 to 346 AA) coexpressed with CyclinH (1 to 323 AA)and MAT1 (1 to 309) in baculovirus at 10 uM using FAM-labelled peptide as substrate pre-incubated for 10 mins followed by substrate addition by mobility shift assay relative to control; assay type: protein-complex assay
[24] = Induction of apoptosis in gefitinib-insensitive human HCC827GR cells assessed as early apoptotic cells at 1 uM measured after 24 hrs by Annexin-V/propidium iodide staining-based flow cytometric analysis (reference value: 1.9%); assay type: functional
[25] = tested on: HCC827; test: Antiproliferative activity against human HCC827 cells incubated for 48 hrs by MTT assay; assay type: functional, cell-based; details: HCC827, 48 h
[26] = target: Tyrosine-protein kinase JAK3 (Homo sapiens) (UniProt P52333); test: Inhibition of N-terminal GST tagged human JAK3 catalytic domain (795 to 1124 AA) expressed in baculovirus at 10 uM using FAM-labelled peptide as substrate pre-incubated for 10 mins followed by substrate addition by mobility shift assay relative to control
Chain of Tyrosine-protein kinase JAK3 (Homo sapiens) (P52333 whole entry, the tested form may be a part): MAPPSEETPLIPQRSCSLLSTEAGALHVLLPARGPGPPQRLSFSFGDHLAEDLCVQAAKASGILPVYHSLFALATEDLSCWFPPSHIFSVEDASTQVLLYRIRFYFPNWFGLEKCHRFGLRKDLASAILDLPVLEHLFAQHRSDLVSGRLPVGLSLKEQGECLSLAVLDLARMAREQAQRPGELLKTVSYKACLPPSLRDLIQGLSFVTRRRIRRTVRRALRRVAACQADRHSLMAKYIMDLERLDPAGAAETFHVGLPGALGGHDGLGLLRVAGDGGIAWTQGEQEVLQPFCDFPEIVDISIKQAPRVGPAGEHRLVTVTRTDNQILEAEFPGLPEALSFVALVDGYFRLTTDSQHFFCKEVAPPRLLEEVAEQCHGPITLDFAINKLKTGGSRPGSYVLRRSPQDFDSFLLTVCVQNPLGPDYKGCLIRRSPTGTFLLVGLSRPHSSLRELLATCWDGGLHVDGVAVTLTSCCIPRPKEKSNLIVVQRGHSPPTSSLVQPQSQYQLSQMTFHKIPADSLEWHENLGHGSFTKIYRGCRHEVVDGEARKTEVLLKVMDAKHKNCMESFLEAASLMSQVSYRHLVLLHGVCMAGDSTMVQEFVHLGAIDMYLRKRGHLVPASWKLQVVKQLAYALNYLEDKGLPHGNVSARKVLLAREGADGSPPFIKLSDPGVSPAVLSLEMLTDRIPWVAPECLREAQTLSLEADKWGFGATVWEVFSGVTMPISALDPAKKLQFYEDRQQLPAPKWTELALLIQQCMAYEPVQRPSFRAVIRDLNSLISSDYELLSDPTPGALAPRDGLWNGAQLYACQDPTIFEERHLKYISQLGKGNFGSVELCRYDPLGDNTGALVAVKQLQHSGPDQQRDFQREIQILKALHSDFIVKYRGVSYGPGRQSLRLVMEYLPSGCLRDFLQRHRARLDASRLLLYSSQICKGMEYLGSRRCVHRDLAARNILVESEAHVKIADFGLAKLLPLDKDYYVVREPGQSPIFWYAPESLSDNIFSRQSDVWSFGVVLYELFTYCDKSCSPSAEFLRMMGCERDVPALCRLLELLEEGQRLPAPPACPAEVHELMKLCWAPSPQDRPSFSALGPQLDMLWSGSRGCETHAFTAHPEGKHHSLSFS

[27] = target: T1, Fibroblast growth factor receptor 1; test: Inhibition of N-terminal GST-tagged human FGFR1 expressed in baculovirus at 10 uM using FAM-labelled peptide as substrate pre-incubated for 10 mins followed by substrate addition by mobility shift assay relative to control
[28] = target: T1, Fibroblast growth factor receptor 1; test: Inhibition of N-terminal GST-tagged human FGFR1 cytoplasmic domain (398-822 AA) expressed in baculovirus at 10 uM using FAM-labelled peptide as substrate pre-incubated for 10 mins followed by substrate addition by mobility shift assay relative to control
[29] = tested on: NCI-H1581; test: Antiproliferative activity against human NCI-H1581 cells assessed as inhibition of cell growth at 10 uM incubated for 48 hrs by MTT assay relative to control; assay type: functional; details: NCI-H1581, 48 h
[30] = target: T2, Epidermal growth factor receptor; test: Inhibition of EGFR in gefitinib-insensitive human HCC827GR cells assessed as reduction in EGF-induced EGFR phosphorylation upto 10 uM measured after 2 hrs by western blot analysis
[31] = target: Platelet-derived growth factor receptor alpha (Homo sapiens) (UniProt P16234); test: Inhibition of N-terminal GST tagged human PDGFRalpha cytoplasmic domain (550 to 1089 AA) expressed in baculovirus at 10 uM using FAM-labelled peptide as substrate pre-incubated for 10 mins followed by substrate addition by mobility shift assay relative to control

`COc1ccc(OC)c(Nc2cc(NC(=O)Nc3c(Cl)cccc3Cl)ncn2)c1` showed an inhibition at 10 µM [1] of 94%, an Activity [2] of 5.8% and a Tmax [3] of 1.5 h. For the same molecule, the Activity [4] was 5.2%, the Activity [5] was 16% and the inhibition [6] was “Active”. The inhibition [7] was “Active”, the half-life [8] was 7.07 h and the Activity [9] was “Active”. For the same molecule, the Activity [10] was 11.8%, the inhibition at 10 µM [11] was 74% and the Activity [12] was 4.1%. For the same molecule, the inhibition [13] was 45.8%, the Activity [14] was 30.1% and the Activity [15] was 3.5%. The Activity [16] was “Active”, the inhibition [17] was “Active” and the inhibition [18] was 86.8%. For the same molecule, the Activity [19] was 8.9%, the AUC(0-inf) [20] was 13000 ng·h/mL and the Activity [21] was “Active”. The Activity [22] was “Active”, the inhibition [23] was 22.3% and the Activity [24] was 0.9%. It also gave an IC50 [25] of 1250 nM, an inhibition [26] of 3.36% and an inhibition [27] of 85.2%. The inhibition [28] was 88.5%, the inhibition at 10 µM [29] was 93.1% and the inhibition [30] was “Active”. It also gave an inhibition [31] of 48.1%.
